In brackets after ≈: the same amount, converted by molar mass.
Columns and labels:
Experiment in all cases: ≥ marks a high value that may be exact or a test limit, other limits are often not marked, values filed in µg/mL are converted to µM
Bacillus subtilis = system: Bacillus subtilis
Klebsiella pneumoniae = system: Klebsiella pneumoniae
Escherichia coli K-12 = system: Escherichia coli K-12
[1] = system: Pseudomonas aeruginosa ATCC 27853
[2] = system: Staphylococcus aureus ATCC 6538
Escherichia coli UB1005 = system: Escherichia coli UB1005
[3] = system: Staphylococcus aureus ATCC 29213
[4] = system: Escherichia coli ATCC 25922
[5] = system: Salmonella enterica subsp. enterica serovar Typhimurium C77-31
[6] = system: Staphylococcus epidermidis ATCC 12228
[7] = system: Enterococcus faecalis ATCC 29212
[8] = system: Staphylococcus aureus ATCC 25923
[9] = system: Salmonella typhimurium KCTC 1926
[10] = system: Escherichia coli KCTC 1682
[11] = system: Staphylococcus aureus KCTC 1621
[12] = system: Pseudomonas aeruginosa KCTC 1637
[13] = system: Bacillus subtilis KCTC 3068
[14] = system: Staphylococcus epidermidis KCTC 1917
[15] = system: Pseudomonas aeruginosa PAO1
[16] = system: Salmonella enterica serovar Typhimurium

| SMILES | MIC (Escherichia coli UB1005) | MIC [3] | MIC [4] | MIC [5] | MIC [6] | MIC [8] | MIC [9] | MIC [10] | MIC [11] | MIC [12] | MIC [14] | further results |
| --- | --- | --- | --- | --- | --- | --- | --- | --- | --- | --- | --- | --- |
| CC[C@H](C)[C@H](NC(=O)[C@H](C)NC(=O)[C@H](CCCCN)NC(=O)[C@H](C)NC(=O)[C@H](CCSC)NC(=O)CNC(=O)CNC(=O)[C@H](CC(C)C)NC(=O)[C@@H](NC(=O)[C@@H](NC(=O)[C@H](CC(N)=O)NC(=O)CNC(=O)[C@H](CCSC)NC(=O)[C@H](CCCN=C(N)N)NC(=O)[C@H](CCC(=O)O)NC(=O)[C@H](CC(=O)O)NC(=O)[C@@H](NC(=O)[C@H](CCCCN)NC(=O)[C@H](CCCCN)NC(=O)[C@H](CCC(N)=O)NC(=O)[C@@H](NC(=O)[C@H](CCCCN)NC(=O)[C@H](CCC(=O)O)NC(=O)[C@H](CCC(=O)O)NC(=O)[C@H](CC(N)=O)NC(=O)[C@@H](NC(=O)[C@H](Cc1c[nH]c2ccccc12)NC(=O)CN)[C@@H](C)CC)[C@@H](C)CC)[C@@H](C)CC)[C@@H](C)O)C(C)C)C(=O)N[C@H](C(=O)N[C@@H](Cc1cnc[nH]1)C(=O)N[C@@H](CCCCN)C(=O)N[C@@H](CCSC)C(=O)N[C@@H](C)C(=O)N[C@@H](CCCCN)C(=O)N[C@@H](CC(N)=O)C(=O)N[C@@H](CCC(=O)O)C(=O)N[C@@H](Cc1ccccc1)C(=O)N[C@@H](CCC(N)=O)C(=O)N[C@H]1CSSC[C@@H]2NC(=O)[C@H](Cc3ccc(O)cc3)NC(=O)CNC(=O)[C@H](CCCCN)NC(=O)[C@H](CCC(=O)O)NC(=O)CNC(=O)[C@H](CO)NC(=O)[C@H]([C@@H](C)O)NC(=O)[C@H](CCC(N)=O)NC(=O)[C@@H]3CSSC[C@@H](C(=O)NCC(=O)N[C@H](C(=O)N4CCC[C@H]4C(=O)N[C@@H](CC(C)C)C(=O)N[C@@H](CO)C(=O)N[C@@H](Cc4ccc(O)cc4)C(=O)O)[C@@H](C)O)NC(=O)[C@H](CCCCN)NC(=O)[C@H](CSSC[C@H](NC(=O)[C@H](CC(N)=O)NC(=O)CNC(=O)[C@H](CC(C)C)NC(=O)[C@H](CCSC)NC(=O)[C@H](CC(=O)O)NC(=O)[C@H](CCSC)NC(=O)[C@H](CC(N)=O)NC(=O)[C@H](C)NC(=O)[C@H](CCSC)NC1=O)C(=O)N[C@@H](CCC(=O)O)C(=O)N[C@@H](CCCCN)C(=O)N[C@@H](Cc1cnc[nH]1)C(=O)N3)NC(=O)[C@H](CCCCN)NC(=O)[C@H]([C@@H](C)O)NC(=O)CNC(=O)[C@H](Cc1cnc[nH]1)NC2=O)C(C)C [GWINEEKIQKKIDERMGNTVLGGMAKAIVHKMAKNEFQCMANMDMLGNCEKHCQTSGEKGYCHGTKCKCGTPLSY] |  |  |  |  |  |  |  |  |  |  |  | MIC (Bacillus subtilis): 1 µM (≈ 8.35 µg/mL); MIC (Klebsiella pneumoniae): 10 µM (≈ 83.5 µg/mL) |
| CC[C@H](C)[C@H](NC(=O)[C@H](CCCN=C(N)N)NC(=O)[C@H](CCC(N)=O)NC(=O)[C@@H](NC(=O)[C@@H](NC(=O)[C@H](CCCN=C(N)N)NC(=O)[C@H](CCCCN)NC(=O)[C@H](Cc1ccccc1)NC(=O)[C@H](CC(=O)O)NC(=O)CNC(=O)[C@H](CC(C)C)NC(=O)[C@@H](N)CC(C)C)[C@@H](C)CC)C(C)C)C(=O)N[C@@H](CCCCN)C(=O)N[C@@H](CC(=O)O)C(=O)N[C@@H](Cc1ccccc1)C(N)=O [LLGDFKRIVQRIKDF] |  |  |  |  |  |  |  |  |  |  |  | MIC (Escherichia coli K-12): ≥ 250 µM |
| CC[C@H](C)[C@H](NC(=O)[C@H](CCCCN)NC(=O)[C@H](CCCCN)NC(=O)[C@H](Cc1ccccc1)NC(=O)[C@H](C)NC(=O)[C@H](CCCCN)NC(=O)[C@H](Cc1c[nH]c2ccccc12)NC(=O)[C@@H](N)CCCCN)C(=O)N[C@@H](CCC(=O)O)C(=O)N[C@@H](CCCCN)C(=O)N[C@@H](CCSC)C(=O)N[C@H](C(=O)N[C@@H](CCCN=C(N)N)C(=O)N[C@@H](CC(N)=O)C(=O)N[C@H](C(=O)N[C@@H](CCCN=C(N)N)C(=O)N[C@@H](CC(N)=O)C(=O)N[C@@H](CCCCN)C(=O)N[C@H](C(=O)N[C@H](C(=O)N[C@@H](CCCCN)C(N)=O)C(C)C)[C@@H](C)CC)[C@@H](C)CC)[C@@H](C)CC [KWKAFKKIEKMIRNIRNKIVK] |  |  |  |  |  |  |  |  |  |  |  | MIC [1]: > 3 µM; MIC (Escherichia coli K-12): 3 µM (≈ 8.01 µg/mL); MIC [2]: > 12 µM |
| CC[C@H](C)[C@H](NC(=O)[C@H](CCCCN)NC(=O)[C@H](CCCCN)NC(=O)[C@H](CC(C)C)NC(=O)[C@H](CCCN=C(N)N)NC(=O)[C@H](CC(=O)O)NC(=O)[C@H](CCCN=C(N)N)NC(=O)[C@@H](NC(=O)[C@H](CCCCN)NC(=O)[C@H](CC(=O)O)NC(=O)[C@H](CCCN=C(N)N)NC(=O)[C@H](CC(C)C)NC(=O)[C@H](CCCN=C(N)N)NC(=O)[C@H](CCCN=C(N)N)NC(=O)[C@H](Cc1ccccc1)NC(=O)[C@@H](N)CCCN=C(N)N)[C@@H](C)O)C(N)=O [RFRRLRDKTRDRLKKI] | ≥ 128 µM | > 128 µM | > 128 µM | ≥ 128 µM | > 128 µM |  |  |  |  |  |  | MIC [7]: > 128 µM |
| CC(C)C[C@H](NC(=O)[C@H](CCCN=C(N)N)NC(=O)[C@H](CCCCN)NC(=O)[C@H](Cc1c[nH]c2ccccc12)NC(=O)[C@@H](NC(=O)[C@H](CCCCN)NC(=O)[C@H](CCCCN)NC(=O)[C@H](Cc1c[nH]c2ccccc12)NC(=O)[C@H](CC(C)C)NC(=O)[C@H](CCCN=C(N)N)NC(=O)[C@@H](N)CCCN=C(N)N)[C@@H](C)O)C(=O)N[C@@H](Cc1c[nH]c2ccccc12)C(N)=O [RRLWKKTWKRLW] | 4 µM (≈ 7.02 µg/mL) | 8 µM (≈ 14 µg/mL) | 4 µM (≈ 7.02 µg/mL) | 8 µM (≈ 14 µg/mL) | 8 µM (≈ 14 µg/mL) | 16 µM (≈ 28.1 µg/mL) |  |  |  |  |  |  |
| NCCCC[C@H](NC(=O)[C@H](CCCCN)NC(=O)[C@H](Cc1c[nH]c2ccccc12)NC(=O)[C@H](CCCCN)NC(=O)[C@@H]1CCCN1C(=O)[C@H](Cc1c[nH]c2ccccc12)NC(=O)[C@H](Cc1c[nH]c2ccccc12)NC(=O)[C@@H]1CCCN1C(=O)[C@H](CCCCN)NC(=O)[C@H](Cc1c[nH]c2ccccc12)NC(=O)[C@H](Cc1c[nH]c2ccccc12)NC(=O)[C@@H]1CCCN1C(=O)[C@H](CCCCN)NC(=O)[C@@H](N)CCCCN)C(=O)O [KKPWWKPWWPKWKK] |  |  |  |  |  |  | 2 µM (≈ 4.02 µg/mL) | 2 µM (≈ 4.02 µg/mL) | 2 µM (≈ 4.02 µg/mL) | 4 µM (≈ 8.04 µg/mL) | 1 µM (≈ 2.01 µg/mL) | MIC [13]: 1 µM (≈ 2.01 µg/mL) |
| CC[C@H](C)[C@H](NC(=O)[C@H](CCCN=C(N)N)NC(=O)[C@H](Cc1c[nH]c2ccccc12)NC(=O)[C@H](CC(C)C)NC(=O)[C@@H](N)CCCN=C(N)N)C(=O)N[C@H](C(=O)N[C@H](C(=O)N[C@H](C(=O)N[C@@H](CCCN=C(N)N)C(=O)N[C@H](C(=O)N[C@@H](Cc1c[nH]c2ccccc12)C(=O)N[C@@H](CCCN=C(N)N)C(N)=O)C(C)C)[C@@H](C)CC)C(C)C)C(C)C [RLWRIVVIRVWR] |  |  |  |  |  |  | 15.1 µM (≈ 25 µg/mL) | 30.3 µM (≈ 50 µg/mL) | 15.1 µM (≈ 25 µg/mL) | 15.1 µM (≈ 25 µg/mL) | 15.1 µM (≈ 25 µg/mL) | MIC [13]: 30.3 µM (≈ 50 µg/mL) |
| CC[C@H](C)[C@H](NC(=O)[C@H](CCCCN)NC(=O)[C@H](CCCCN)NC(=O)[C@H](CC(C)C)NC(=O)[C@@H](NC(=O)[C@H](CCCCN)NC(=O)CNC(=O)[C@@H](NC(=O)[C@H](CCCCN)NC(=O)[C@H](CCCCN)NC(=O)[C@H](CC(C)C)NC(=O)[C@H](CCCN=C(N)N)NC(=O)[C@H](CCCCN)NC(=O)[C@H](CCCN=C(N)N)NC(=O)[C@@H](NC(=O)[C@H](CCCCN)NC(=O)[C@H](CCCCN)NC(=O)[C@H](CCCN=C(N)N)NC(=O)[C@H](CC(C)C)NC(=O)[C@H](CCCN=C(N)N)NC(=O)[C@H](CCCN=C(N)N)NC(=O)[C@H](Cc1ccccc1)NC(=O)[C@H](CCCN=C(N)N)NC(=O)CN)[C@@H](C)O)[C@@H](C)CC)C(C)C)C(N)=O [GRFRRLRKKTRKRLKKIGKVLKKI] | 16 µM (≈ 48.1 µg/mL) | 32 µM (≈ 96.2 µg/mL) | 32 µM (≈ 96.2 µg/mL) | ≥ 128 µM | 32 µM (≈ 96.2 µg/mL) | 64 µM (≈ 192 µg/mL) |  |  |  |  |  |  |
| CC[C@H](C)[C@H](N)C(=O)N[C@@H](CC(C)C)C(=O)NCC(=O)N[C@@H](CCCCN)C(=O)N[C@H](C(=O)N[C@@H](CC(C)C)C(=O)N[C@@H](CCCCN)C(=O)NCC(=O)N[C@H](C(=O)N[C@@H](CCCCN)C(=O)N[C@@H](CCCCN)C(=O)N[C@@H](CC(C)C)C(=O)N[C@@H](Cc1ccccc1)C(N)=O)[C@@H](C)CC)[C@@H](C)CC [ILGKILKGIKKLF] |  |  |  |  |  |  | 1 µM (≈ 1.47 µg/mL) | 2 µM (≈ 2.94 µg/mL) | 2 µM (≈ 2.94 µg/mL) | 2 µM (≈ 2.94 µg/mL) | 1 µM (≈ 1.47 µg/mL) |  |
| CC[C@H](C)[C@H](NC(=O)[C@H](CCCN=C(N)N)NC(=O)[C@H](Cc1c[nH]c2ccccc12)NC(=O)[C@H](CS)NC(=O)[C@@H](N)C(C)C)C(=O)N[C@@H](CCCN=C(N)N)C(=O)N[C@H](C(=O)N[C@@H](C)C(=O)N[C@H](C(=O)N[C@H](C(=O)N[C@@H](CCCN=C(N)N)C(=O)N[C@@H](C)C(=O)O)[C@@H](C)CC)C(C)C)C(C)C [VCWRIRVAVIRA] |  |  | 44.4 µM (≈ 64 µg/mL) |  |  | 22.2 µM (≈ 32 µg/mL) |  |  |  |  |  | MIC [15]: 44.4 µM (≈ 64 µg/mL); MIC [16]: ≥ 44.4 µM |

Source: DBAASP
